Source: patent US9382228B2 (priority 2013, dated 2016)

Key:
osteoclast precursors = experiment: cells; type: cell-based; settings: read-out: Osteoclast assay
Experimental: Osteoclast Tartrate-Resistant Acid Phosphatase Assay
Diluted compound was transferred to a 384-well black clear bottom plate. Two-thousand five hundred osteoclast precursors (Lonza, Walkersville, Md.) were added per well in growth media containing Receptor Activator of Nuclear Factor Kappa-beta ligand (RANKL) and M-CSF (R&D Systems, Minneapolis, Minn.). […] Tartrate-resistant acid phosphatase activity in the supernatant samples was determined using an acid phosphatase assay kit (Sigma, St. Louis, Mo.). Absorbance was measured at 550 nm using a plate reader. Data was analyzed using Prism software (Graphpad, San Diego, Calif.) to calculate IC50 values.

[1] = test system: phospho-FMS in THP-1 cells; experiment: cells; settings: Homo sapiens, THP-1, read-out: pFMS inhibition in THP-1 cells
[2] = molecular target: unphosphorylated PDGFRβ kinase (uPDGFRβ, Seq. ID No. 3) (Homo sapiens, UniProt P09619); experiment: biochemical; settings: uPDGFRb, enzymatic assay, ATP 500 μM
Chain of unphosphorylated PDGFRβ kinase (uPDGFRβ, Seq. ID No. 3) (P09619 557-1106): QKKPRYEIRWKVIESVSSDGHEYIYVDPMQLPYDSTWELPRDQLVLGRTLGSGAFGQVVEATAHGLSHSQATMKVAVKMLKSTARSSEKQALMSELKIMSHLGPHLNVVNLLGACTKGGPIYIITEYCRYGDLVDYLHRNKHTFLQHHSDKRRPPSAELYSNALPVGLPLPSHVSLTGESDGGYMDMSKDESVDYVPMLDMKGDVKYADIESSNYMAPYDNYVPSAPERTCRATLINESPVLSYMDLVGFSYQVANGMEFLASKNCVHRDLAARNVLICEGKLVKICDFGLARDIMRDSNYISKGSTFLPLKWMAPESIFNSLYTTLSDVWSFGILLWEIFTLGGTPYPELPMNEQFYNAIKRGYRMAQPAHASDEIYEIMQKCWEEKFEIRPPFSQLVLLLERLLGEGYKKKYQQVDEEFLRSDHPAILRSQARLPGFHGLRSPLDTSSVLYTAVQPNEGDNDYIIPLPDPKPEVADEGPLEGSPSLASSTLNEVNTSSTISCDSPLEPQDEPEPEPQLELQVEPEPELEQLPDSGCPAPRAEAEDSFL

M-NFS-60 cells = experiment: cells; settings: 67 h, read-out: M-NFS-60 cell proliferation
Experimental: M-NFS-6 Cell Proliferation Assay
A serial dilution of test compound was dispensed into a 384-well black clear bottom plate (Corning, Corning, N.Y.). Two thousand five hundred cells were added per well in 50 μL complete growth medium. […] IC50 values were calculated from a series of percent inhibition values determined at a range of inhibitor concentrations using software routines as implemented in the GraphPad Prism software package.

[3] = molecular target: unphosphorylated c-KIT kinase (uKIT, Seq. ID no. 2) (Homo sapiens, UniProt P10721); experiment: biochemical; settings: uKIT, enzymatic assay, ATP 2000 μM
Chain of unphosphorylated c-KIT kinase (uKIT, Seq. ID no. 2) (P10721 with tags, fused parts or gaps): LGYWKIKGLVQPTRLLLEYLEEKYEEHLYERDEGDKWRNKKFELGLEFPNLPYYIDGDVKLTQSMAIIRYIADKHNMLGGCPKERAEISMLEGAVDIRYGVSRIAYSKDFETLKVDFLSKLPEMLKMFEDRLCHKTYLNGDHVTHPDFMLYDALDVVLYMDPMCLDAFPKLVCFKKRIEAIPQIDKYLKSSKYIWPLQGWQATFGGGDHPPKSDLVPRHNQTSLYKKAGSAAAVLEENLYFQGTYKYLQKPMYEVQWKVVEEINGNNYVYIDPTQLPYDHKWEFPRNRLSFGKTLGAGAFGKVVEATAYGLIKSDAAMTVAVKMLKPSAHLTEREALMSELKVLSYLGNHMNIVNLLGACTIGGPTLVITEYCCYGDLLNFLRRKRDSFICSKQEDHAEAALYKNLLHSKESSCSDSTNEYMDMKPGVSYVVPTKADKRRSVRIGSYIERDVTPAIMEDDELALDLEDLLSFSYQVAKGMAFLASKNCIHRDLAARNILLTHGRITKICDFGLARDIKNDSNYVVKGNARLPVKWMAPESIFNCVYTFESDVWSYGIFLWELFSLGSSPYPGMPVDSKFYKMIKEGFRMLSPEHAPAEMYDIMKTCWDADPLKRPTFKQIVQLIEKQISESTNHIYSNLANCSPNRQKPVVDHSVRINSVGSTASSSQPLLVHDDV
Experimental: uKit kinase (Seq. ID No. 2) Assay
In this assay, the oxidation of NADH (thus the decrease at A340 nm) was continuously monitored spectrophometrically. […] The inhibition reaction was started by mixing serial diluted test compound with the above reaction mixture. The absorption at 340 nm was monitored continuously for 4 hours at 30° C. on Synergy 2 plate reader (BioTech).

[4] = molecular target: T1, unphosphorylated c-FMS kinase (uFMS, Seq. ID no. 1) (Homo sapiens, UniProt P07333); experiment: biochemical; settings: uFMS, enzymatic assay, ATP 500 μM
T1 sequence (P07333 538-972): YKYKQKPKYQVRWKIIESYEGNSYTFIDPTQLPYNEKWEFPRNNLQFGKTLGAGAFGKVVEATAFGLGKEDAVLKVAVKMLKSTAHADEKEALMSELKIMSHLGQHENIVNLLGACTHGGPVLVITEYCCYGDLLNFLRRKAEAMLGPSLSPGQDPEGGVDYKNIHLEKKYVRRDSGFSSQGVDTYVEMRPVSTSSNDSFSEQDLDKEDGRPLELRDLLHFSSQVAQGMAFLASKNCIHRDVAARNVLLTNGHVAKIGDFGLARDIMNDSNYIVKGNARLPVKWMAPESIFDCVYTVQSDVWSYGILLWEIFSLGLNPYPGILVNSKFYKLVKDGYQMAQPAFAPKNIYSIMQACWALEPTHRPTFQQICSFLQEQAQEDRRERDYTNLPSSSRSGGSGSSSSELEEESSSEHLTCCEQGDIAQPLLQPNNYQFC
Experimental: In this assay, the oxidation of NADH (thus the decrease at A340 nm) was continuously monitored spectrophometrically. The reaction mixture (100 μL) contained FMS (purchased from Millipore) (10 nM), polyE4Y (1 mg/mL), MgCl2 (10 mM), pyruvate kinase (4 units), lactate dehydrogenase (0.7 units), phosphoenol pyruvate (1 mM), NADH (0.28 mM) and ATP (500 μM) in 90 mM Tris buffer containing 0.2% octyl-glucoside and 1% DMSO, pH 7.5. The inhibition reaction was started by mixing serial diluted test compound with the above reaction mixture. The absorption at 340 nm was monitored continuously for 4 hours at 30° C. on Synergy 2 plate reader. The reaction rate was calculated using the 3 to 4 h time frame. Percent inhibition was obtained by comparison of reaction rate with that of a control (i.e. in the absence of test compound). IC50 values were calculated from a series of percent inhibition values determined at a range of inhibitor concentrations using software routines as implemented in the GraphPad Prism software package.

Row | IC50 (osteoclast precursors) | IC50 [1] | IC50 [2] | IC50 [3] | IC50 [4] | SMILES | IC50 (M-NFS-60 cells)
1 | 0.01 to 0.1 µM | 0.01 to 0.1 µM | – | – | – | Cc1ccc(-c2cc(Oc3ccc(NC(=O)NC(=O)C(C)(C)C)nc3C)ccn2)cn1 [Example 39, N-((6-methyl-5-((6′-methyl-[2,3′-bipyridin]-4-yl)oxy)pyridin-2-yl)carbamoyl)pivalamide] | –
2 | 0.01 to 0.1 µM | 0.01 to 0.1 µM | – | – | – | Cc1nc(NC(=O)NC(=O)CC(C)(C)C(F)(F)F)ccc1Oc1ccnc(-c2cnn(C)c2)c1 [Example 47, 4,4,4-trifluoro-3,3-dimethyl-N-((6-methyl-5-((2-(1-methyl-1H-pyrazol-4-yl)pyridin-4-yl)oxy)pyridin-2-yl)carbamoyl)butanamide] | –
3 | < 0.01 µM | – | > 1 µM | 0.1 to 1 µM | < 0.01 µM | CC(C)(C)C(=O)NC(=O)Nc1ccc(Oc2ccnc(-c3ccc(N)nc3)c2)cn1 [Example 106, N-((5-((6′-amino-[2,3′-bipyridin]-4-yl)oxy)pyridin-2-yl)carbamoyl)pivalamide] | < 0.01 µM
4 | 0.01 to 0.1 µM | – | 0.1 to 1 µM | 0.01 to 0.1 µM | < 0.01 µM | COC1(C(=O)NC(=O)Nc2cc(C)c(Oc3ccnc(-n4cnc(C)c4)c3)cn2)CCCC1 [Example 162, 1-methoxy-N-((4-methyl-5-((2-(4-methyl-1H-imidazol-1-yl)pyridin-4-yl)oxy)pyridin-2-yl)carbamoyl)cyclopentanecarboxamide] | < 0.01 µM
5 | 0.01 to 0.1 µM | – | 0.1 to 1 µM | 0.1 to 1 µM | 0.01 to 0.1 µM | Cc1cn(-c2cc(Oc3ccc(NC(=O)NC(=O)C4(C)CCOCC4)nc3)ccn2)cn1 [Example 157, 4-methyl-N-((5-((2-(4-methyl-1H-imidazol-1-yl)pyridin-4-yl)oxy)pyridin-2-yl)carbamoyl)tetrahydro-2H-pyran-4-carboxamide] | 0.1 to 1 µM
6 | 0.01 to 0.1 µM | – | 0.1 to 1 µM | 0.01 to 0.1 µM | < 0.01 µM | Cc1cc(NC(=O)NC(=O)C2CCOCC2)nc(C)c1Oc1ccnc(-c2cnn(C)c2)c1 [Example 117, N-((4,6-dimethyl-5-((2-(1-methyl-1H-pyrazol-4-yl)pyridin-4-yl)oxy)pyridin-2-yl)carbamoyl)tetrahydro-2H-pyran-4-carboxamide] | 0.01 to 0.1 µM
7 | 0.01 to 0.1 µM | – | 0.01 to 0.1 µM | 0.01 to 0.1 µM | < 0.01 µM | Cc1cc(NC(=O)NC(=O)C(C)(C)C)nc(C)c1Oc1ccnc(-c2cnn(C)c2)c1 [Example 116, N-((4,6-dimethyl-5-((2-(1-methyl-1H-pyrazol-4-yl)pyridin-4-yl)oxy)pyridin-2-yl)carbamoyl)pivalamide] | 0.01 to 0.1 µM
8 | 0.01 to 0.1 µM | – | > 1 µM | > 1 µM | 0.01 to 0.1 µM | Cc1cc(-c2cc(Oc3ccc(NC(=O)NC(=O)C4CCOC4)nc3)ccn2)ccn1 (stereo not shown) [Example 85, N-((5-((2′-methyl-[2,4′-bipyridin]-4-yl)oxy)pyridin-2-yl)carbamoyl)tetrahydrofuran-3-carboxamide] | 0.1 to 1 µM
9 | 0.01 to 0.1 µM | – | 0.01 to 0.1 µM | < 0.01 µM | < 0.01 µM | Cn1cc(-c2cc(Oc3ccc(NC(=O)NC(=O)C4CC5CCC4C5)nc3)ccn2)cn1 (stereo not shown) [Example 64, N-((5-((2-(1-methyl-1H-pyrazol-4-yl)pyridin-4-yl)oxy)pyridin-2-yl)carbamoyl)bicyclo[2.2.1]heptane-2-carboxamide] | < 0.01 µM
10 | 0.01 to 0.1 µM | – | > 1 µM | > 1 µM | 0.1 to 1 µM | CCC(=O)NC(=O)Nc1ccc(Oc2ccnc(-c3cn(C)cn3)c2)cn1 [Example 138, N-((5-((2-(1-methyl-1H-imidazol-4-yl)pyridin-4-yl)oxy)pyridin-2-yl)carbamoyl)propionamide] | 0.1 to 1 µM
11 | 0.01 to 0.1 µM | – | > 1 µM | 0.01 to 0.1 µM | < 0.01 µM | Cc1cn(-c2cc(Oc3cnc(NC(=O)NC(=O)C(C)(C)C)cc3C)ccn2)cn1 [Example 148, N-((4-methyl-5-((2-(4-methyl-1H-imidazol-1-yl)pyridin-4-yl)oxy)pyridin-2-yl)carbamoyl)pivalamide] | < 0.01 µM
12 | 0.01 to 0.1 µM | – | > 1 µM | > 1 µM | 0.01 to 0.1 µM | CC(C)(C)C(=O)NC(=O)Nc1ccc(Oc2ccnc(-c3ccnc(C(F)(F)F)c3)c2)cn1 [Example 95, N-((5-((2′-(trifluoromethyl)-[2,4′-bipyridin]-4-yl)oxy)pyridin-2-yl)carbamoyl)pivalamide] | 0.1 to 1 µM
13 | 0.01 to 0.1 µM | – | > 1 µM | > 1 µM | 0.01 to 0.1 µM | CCc1nc(NC(=O)NC(=O)C2(OC)CC2)ccc1Oc1ccnc(-c2cnn(C)c2)c1 [Example 141, N-((6-ethyl-5-((2-(1-methyl-1H-pyrazol-4-yl)pyridin-4-yl)oxy)pyridin-2-yl)carbamoyl)-1-methoxycyclopropanecarboxamide] | 0.1 to 1 µM
14 | < 0.01 µM | – | 0.1 to 1 µM | < 0.01 µM | < 0.01 µM | Cn1cc(-c2cc(Oc3ccc(NC(=O)NC(=O)C4CCCC4)nc3)ccn2)cn1 [Example 65, N-((5-((2-(1-methyl-1H-pyrazol-4-yl)pyridin-4-yl)oxy)pyridin-2-yl)carbamoyl)cyclopentanecarboxamide] | < 0.01 µM
15 | 0.01 to 0.1 µM | – | 0.1 to 1 µM | 0.1 to 1 µM | < 0.01 µM | COC1(C(=O)NC(=O)Nc2ccc(Oc3ccnc(-c4cnc(C)s4)c3)cn2)CCCC1 [Example 149, 1-methoxy-N-((5-((2-(2-methylthiazol-5-yl)pyridin-4-yl)oxy)pyridin-2-yl)carbamoyl)cyclopentanecarboxamide] | 0.01 to 0.1 µM
16 | < 0.01 µM | < 0.01 µM | – | – | – | Cc1cc(-c2cc(Oc3ccc(NC(=O)NC(=O)C(C)C)nc3C)ccn2)ccn1 [Example 79, N-((6-methyl-5-((2′-methyl-[2,4′-bipyridin]-4-yl)oxy)pyridin-2-yl)carbamoyl)isobutyramide] | –
17 | 0.01 to 0.1 µM | – | < 0.01 µM | 0.1 to 1 µM | < 0.01 µM | Cn1cc(-c2cc(Oc3ccc(NC(=O)NC(=O)C4(C(F)(F)F)CCC4)nc3)ccn2)cn1 [Example 101, N-((5-((2-(1-methyl-1H-pyrazol-4-yl)pyridin-4-yl)oxy)pyridin-2-yl)carbamoyl)-1-(trifluoromethyl)cyclobutanecarboxamide] | < 0.01 µM
18 | 0.01 to 0.1 µM | – | > 1 µM | 0.1 to 1 µM | < 0.01 µM | COC1(C(=O)NC(=O)Nc2ccc(Oc3ccnc(-c4cnc(C)s4)c3)cn2)CC1 [Example 155, 1-methoxy-N-((5-((2-(2-methylthiazol-5-yl)pyridin-4-yl)oxy)pyridin-2-yl)carbamoyl)cyclopropanecarboxamide] | 0.01 to 0.1 µM
19 | 0.01 to 0.1 µM | – | > 1 µM | 0.1 to 1 µM | 0.01 to 0.1 µM | Cc1ncc(-c2cc(Oc3ccc(NC(=O)NC(=O)C4CCOCC4)nc3)ccn2)s1 [Example 156, N-((5-((2-(2-methylthiazol-5-yl)pyridin-4-yl)oxy)pyridin-2-yl)carbamoyl)tetrahydro-2H-pyran-4-carboxamide] | 0.1 to 1 µM
20 | < 0.01 µM | – | > 1 µM | 0.01 to 0.1 µM | < 0.01 µM | Cc1ccc(-c2cc(Oc3ccc(NC(=O)NC(=O)C4CCCC4)nc3C)ccn2)cn1 [Example 100, N-((6-methyl-5-((6′-methyl-[2,3′-bipyridin]-4-yl)oxy)pyridin-2-yl)carbamoyl)cyclopentanecarboxamide] | 0.01 to 0.1 µM
21 | < 0.01 µM | 0.01 to 0.1 µM | – | – | – | COC(C)(C)C(=O)NC(=O)Nc1ccc(Oc2ccnc(-c3cnn(C)c3)c2)cn1 [Example 55, 2-methoxy-2-methyl-N-((5-((2-(1-methyl-1H-pyrazol-4-yl)pyridin-4-yl)oxy)pyridin-2-yl)carbamoyl)propanamide] | –
22 | 0.01 to 0.1 µM | – | > 1 µM | > 1 µM | 0.01 to 0.1 µM | Cc1cn(-c2cc(Oc3ccc(NC(=O)NC(=O)C(C)C)nc3C)ccn2)cn1 [Example 134, N-((6-methyl-5-((2-(4-methyl-1H-imidazol-1-yl)pyridin-4-yl)oxy)pyridin-2-yl)carbamoyl)isobutyramide] | 0.1 to 1 µM
23 | 0.01 to 0.1 µM | – | > 1 µM | 0.1 to 1 µM | 0.01 to 0.1 µM | Cc1ncc(-c2cc(Oc3ccc(NC(=O)NC(=O)C4(C)CCOCC4)nc3)ccn2)o1 [Example 163, 4-methyl-N-((5-((2-(2-methyloxazol-5-yl)pyridin-4-yl)oxy)pyridin-2-yl)carbamoyl)tetrahydro-2H-pyran-4-carboxamide] | 0.01 to 0.1 µM
